Publication PMC10870114 (Clinical Cancer Research, 2023)

Experiment: Plasma pharmacokinetics on fraction day
Assay type: in vivo, human
Conditions: plasma, patients given peposertib

## Oc1ccc(C(O)c2cc(-c3ncnc4cc(N5CCOCC5)ccc34)c(F)cc2Cl)nn1 (centres unmarked) [M467]
  Average exposure proportion compared with peposertib, AUC: < 25%
  Average exposure proportion compared with peposertib, Cmax: < 16%
